Measured values taken from ChEMBL document CHEMBL3272148, “Antitumor 1-(X-aryl)-3,3-dialkyltriazenes. 2. On the role of correlation analysis in decision making in drug modification. Toxicity quantitative structure-activity relationships of 1-(X-phenyl)-3,3-dialkyltriazenes in mice” (J Med Chem, 1978).
Values belong to the compound of their own block, whether it stands above or below them.

Key:
[1] = Half life of the compound at pH 7.4 at 37 degC in presence of serum; format: physicochemical
Mus musculus [2] = species on record: Mus musculus; assay: Toxicity in CDF1 mouse assessed as concentration required for producing T/C of 140; format: organism-based; settings: in vivo
Rattus norvegicus = species on record: Rattus norvegicus; assay: Toxicity in rat assessed as concentration required for producing T/C of 140; format: organism-based; settings: in vivo
L1210 [3] = assay: Antitumor activity against mouse L1210 cells allografted in mouse assessed as survival rate at 20 mg/kg relative to control; format: functional
Mus musculus [4] = species on record: Mus musculus; assay: Toxicity in mouse assessed as concentration required for producing T/C of 140; format: organism-based; settings: in vivo
L1210 [5] = assay: Antitumor activity against mouse L1210 cells allografted in mouse assessed as survival rate at 100 mg/kg relative to control; format: functional
L1210 [6] = assay: Antitumor activity against mouse L1210 cells allografted in mouse assessed as survival rate at 200 mg/kg relative to control; format: functional
L1210 [7] = assay: Antitumor activity against mouse L1210 cells allografted in mouse assessed as survival rate at 265 mg/kg relative to control; format: functional
L1210 [8] = assay: Antitumor activity against mouse L1210 cells allografted in mouse assessed as survival rate at 32 mg/kg relative to control; format: functional
L1210 [9] = assay: Antitumor activity against mouse L1210 cells allografted in mouse assessed as survival rate at 250 mg/kg relative to control; format: functional
L1210 [10] = assay: Antitumor activity against mouse L1210 cells allografted in mouse assessed as survival rate at 450 mg/kg relative to control; format: functional

half-life [1]: 6 min
SMILES: C/N=N/Nc1ccccc1

SMILES: CCCCN(C)/N=N/c1ccc(C(N)=O)cc1
log(1/C) (Mus musculus [2]): 3.46

SMILES: CCCCCCCCN(C)/N=N/c1ccc(C(N)=O)cc1
log(1/C) (Mus musculus [2]): 2.8

SMILES: CN(C)/N=N/c1ccccc1
log(1/C) (Rattus norvegicus): 2.54 | log(1/C) (Mus musculus [2]): 3.43

SMILES: CN(C)/N=N/c1ccc(S(N)(=O)=O)cc1
log(1/C) (Mus musculus [2]): 3.2

SMILES: Cc1n[nH]c(C)c1/N=N/N1CCOCC1
T/C (L1210 [3]): 124%

SMILES: CN(C)/N=N/c1ccc(C(F)(F)F)cc1
log(1/C) (Mus musculus [2]): 3.05

SMILES: CN(C)/N=N/c1ccc(C#N)cc1
log(1/C) (Mus musculus [2]): 3.2

SMILES: CN(C)/N=N/c1ccc(NC(N)=O)cc1
log(1/C) (Mus musculus [2]): 3.68

SMILES: Cc1ccc(/N=N/N(C)C)cc1
log(1/C) (Rattus norvegicus): 2.62 | log(1/C) (Mus musculus [2]): 3.26

SMILES: CN(C)/N=N/c1ccc([N+](=O)[O-])cc1
log(1/C) (Rattus norvegicus): 2.06

SMILES: COc1ccc(/N=N/N(C)C)cc1
log(1/C) (Rattus norvegicus): 2.72 | log(1/C) (Mus musculus [2]): 3.55

SMILES: CCN(CC)/N=N/c1[nH]cnc1C(N)=O
log(1/C) (Mus musculus [4]): 2.75 | T/C (L1210 [5]): 127%

SMILES: CCCN(CCC)/N=N/c1[nH]cnc1C(N)=O
log(1/C) (Mus musculus [4]): 2.7

SMILES: CCCCN(CCCC)/N=N/c1[nH]cnc1C(N)=O
log(1/C) (Mus musculus [4]): 2.91

SMILES: CCCCCN(CCCCC)/N=N/c1[nH]cnc1C(N)=O
log(1/C) (Mus musculus [4]): 3.49

SMILES: CCCCN(CC)/N=N/c1[nH]cnc1C(N)=O
T/C (L1210 [6]): 124%

SMILES: CCCN(CCC)/N=N/c1c(C)n[nH]c1C(=O)OC
T/C (L1210 [7]): 131%

SMILES: CCN(CC)/N=N/c1n[nH]cc1C(N)=O
T/C (L1210 [6]): 144%

SMILES: CCCCN(CCCC)/N=N/c1cc(=O)[nH]c(=O)[nH]1
T/C (L1210 [8]): 145%

SMILES: NC(=O)c1nc[nH]c1/N=N/N1CCCC1
T/C (L1210 [9]): 126%

SMILES: CCN(CC)/N=N/c1ccc[n+]([O-])c1
T/C (L1210 [10]): 141%

SMILES: CCN(C)/N=N/c1ccc(C(N)=O)cc1
log(1/C) (Mus musculus [2]): 3.24

SMILES: CN(C)/N=N/c1ccc(C(N)=O)cc1
log(1/C) (Mus musculus [2]): 3.32

SMILES: CN(C)/N=N/c1ccc(I)cc1
log(1/C) (Rattus norvegicus): 2.68

SMILES: CN(C)/N=N/c1ccc(Br)cc1
log(1/C) (Rattus norvegicus): 2.73

SMILES: CN(C)/N=N/c1ccc(F)cc1
log(1/C) (Rattus norvegicus): 2.71

SMILES: CN(C)/N=N/c1ccc(Cl)cc1
log(1/C) (Rattus norvegicus): 2.71

SMILES: CN(C)/N=N/c1[nH]cnc1C(N)=O [DACARBAZINE]
log(1/C) (Mus musculus [4]): 2.44 | log(1/C) (Mus musculus [2]): 2.68
